How the values were obtained:
Type in all cases: in vivo
[1] = tested on: large crabgrass (Digitaria sanguinalis, DIGSA); assay: Greenhouse herbicide screen, post-emerge application, phytotoxicity rating; settings: POST emergent, 14 days after application, scale 0-100
Procedure, shortened: (§1)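 Acetone-dissolved compounds are sprayed over pots at 15 to 1000 g ai/ha with a flat fan nozzle 40–45 cm above the target. Pre-emerge pots are top-watered immediately to incorporate; post-emerge pots are bottom-watered. Plants are rated 0–100 after 14 days.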

[2] = tested on: redroot pigweed (Amaranthus retrofiexus, AMARE); assay: as above; settings: POST emergent, 14 days after application
Procedure, shortened: as §1

[3] = tested on: cocklebur (Xanthium strumarium, XANST); assay: as above; settings: POST emergent, 14 days after application, scale 0-100
Procedure, shortened: as §1

[4] = tested on: sicklepod (Cassia obtusifolia, CASOB); assay: as above; settings: POST emergent, 14 days after application, scale 0-100
Procedure, shortened: as §1

[5] = tested on: green foxtail (Setaria viridis, SETVI); assay: as above; settings: POST emergent, 14 days after application, scale 0-100
Procedure, shortened: as §1

[6] = tested on: lambsquarters (Chenopodium album, CHEAL); assay: as above; settings: POST emergent, 14 days after application, scale 0-100
Procedure, shortened: as §1

[7] = tested on: velvetleaf (Abutilon theophrasti, ABUTH); assay: as above; settings: POST emergent, 14 days after application, scale 0-100
Procedure, shortened: as §1

[8] = tested on: common ragweed (Ambrosia artemisiifolia L., AMBEL); assay: as above; settings: POST emergent, 14 days after application, scale 0-100
Procedure, shortened: as §1

[9] = tested on: barnyardgrass (Echinochloa crus-galli, ECHCG); assay: as above; settings: POST emergent, 14 days after application, scale 0-100
Procedure, shortened: as §1

[10] = tested on: ivyleaf morningglory (Ipomoea hederacea, IPOHE); assay: as above; settings: POST emergent, 14 days after application, scale 0-100
Procedure, shortened: as §1

[11] = tested on: johnsongrass (Sorghum halepense, SORHA); assay: as above; settings: POST emergent, 14 days after application, scale 0-100
Procedure, shortened: as §1

[12] = tested on: upland rice (Oryza sp., var.Cocodrie, RICE); assay: Greenhouse herbicide screen, post-emerge application, crop damage rating; settings: POST emergent, 14 days after application, scale 0-100
Procedure, shortened: as §1

[13] = tested on: field corn (Zea mays L., var. Dekalb 535, CORN); assay: as above; settings: POST emergent, 14 days after application, scale 0-100
Procedure, shortened: as §1

[14] = tested on: upland rice (Oryza sp., var.Cocodrie, RICE); assay: Greenhouse herbicide screen, pre-emerge application, crop damage rating; settings: PRE emergent, 14 days after application, rating scale 0-100
Procedure, shortened: as §1

[15] = tested on: field corn (Zea mays L., var. Dekalb 535, CORN); assay: as above; settings: PRE emergent, 14 days after application, rating scale 0-100
Procedure, shortened: as §1

[16] = tested on: large crabgrass (Digitaria sanguinalis, DIGSA); assay: Greenhouse herbicide screen, pre-emerge application, phytotoxicity rating; settings: PRE emergent, 14 days after application, rating scale 0-100
Procedure, shortened: as §1

[17] = tested on: redroot pigweed (Amaranthus retrofiexus, AMARE); assay: as above; settings: PRE emergent, 14 days after application, rating scale 0-100
Procedure, shortened: as §1

[18] = tested on: cocklebur (Xanthium strumarium, XANST); assay: as above; settings: PRE emergent, 14 days after application, rating scale 0-100
Procedure, shortened: as §1

[19] = tested on: sicklepod (Cassia obtusifolia, CASOB); assay: as above; settings: PRE emergent, 14 days after application, rating scale 0-100
Procedure, shortened: as §1

[20] = tested on: green foxtail (Setaria viridis, SETVI); assay: as above; settings: PRE emergent, 14 days after application, rating scale 0-100
Procedure, shortened: as §1

[21] = tested on: lambsquarters (Chenopodium album, CHEAL); assay: as above; settings: PRE emergent, 14 days after application, rating scale 0-100
Procedure, shortened: as §1

[22] = tested on: velvetleaf (Abutilon theophrasti, ABUTH); assay: as above; settings: PRE emergent, 14 days after application, rating scale 0-100
Procedure, shortened: as §1

[23] = tested on: common ragweed (Ambrosia artemisiifolia L., AMBEL); assay: as above; settings: PRE emergent, 14 days after application, rating scale 0-100
Procedure, shortened: as §1

[24] = tested on: barnyardgrass (Echinochloa crus-galli, ECHCG); assay: as above; settings: PRE emergent, 14 days after application, rating scale 0-100
Procedure, shortened: as §1

[25] = tested on: ivyleaf morningglory (Ipomoea hederacea, IPOHE); assay: as above; settings: PRE emergent, 14 days after application, rating scale 0-100
Procedure, shortened: as §1

[26] = tested on: johnsongrass (Sorghum halepense, SORHA); assay: as above; settings: PRE emergent, 14 days after application, rating scale 0-100
Procedure, shortened: as §1

[27] = 63 g ai/ha, scale 0-100 (0 no damage, 100 complete death)

C#CCOC(=NN=C(C(C)(C)C)C(C)(C)C)c1cc(-n2c(=O)cc(C(F)(F)F)n(C)c2=O)c(F)cc1Cl [Compound 5-7]
99: phytotoxicity rating AMARE ([2]; 250 g ai/ha, scale 0-100) | phytotoxicity rating ABUTH ([22]; 250 g ai/ha)
55: phytotoxicity rating XANST ([3]; 250 g ai/ha) | phytotoxicity rating SETVI ([5]; 250 g ai/ha) | phytotoxicity rating AMBEL ([8]; 250 g ai/ha) | phytotoxicity rating ECHCO ([9]; 250 g ai/ha)
70: phytotoxicity rating AMARE [2, 27] | phytotoxicity rating CHEAL ([6]; 63 g ai/ha) | phytotoxicity rating ABUTH ([7]; 250 g ai/ha) | phytotoxicity rating IPOHE ([10]; 250 g ai/ha)
10: crop damage rating RICE ([12]; 63 g ai/ha) | crop damage rating CORN ([15]; 250 g ai/ha)
20: phytotoxicity rating SORHA ([26]; 250 g ai/ha)
85: phytotoxicity rating CHEAL ([6]; 250 g ai/ha)
0: phytotoxicity rating DIGSA ([1]; 63 g ai/ha) | phytotoxicity rating XANST ([3]; 63 g ai/ha) | phytotoxicity rating SORHA ([11]; 63 g ai/ha) | crop damage rating RICE ([12]; 250 g ai/ha) | crop damage rating CORN ([13]; 63 g ai/ha) | crop damage rating RICE ([14]; 63 g ai/ha) | crop damage rating RICE ([14]; 250 g ai/ha) | crop damage rating CORN ([15]; 63 g ai/ha) | phytotoxicity rating DIGSA ([16]; 63 g ai/ha) | phytotoxicity rating XANST ([18]; 63 g ai/ha) | phytotoxicity rating XANST ([18]; 250 g ai/ha) | phytotoxicity rating CASOB ([19]; 63 g ai/ha) | phytotoxicity rating AMBEL ([23]; 63 g ai/ha) | phytotoxicity rating ECHCG ([24]; 63 g ai/ha) | phytotoxicity rating ECHCG ([24]; 250 g ai/ha) | phytotoxicity rating IPOHE ([25]; 63 g ai/ha)
60: phytotoxicity rating IPOHE ([10]; 63 g ai/ha) | phytotoxicity rating AMARE ([17]; 63 g ai/ha)
30: phytotoxicity rating ABUTH ([7]; 63 g ai/ha) | phytotoxicity rating SETVI ([20]; 63 g ai/ha) | phytotoxicity rating IPOHE ([25]; 250 g ai/ha)
80: phytotoxicity rating SETVI ([20]; 250 g ai/ha)
50: phytotoxicity rating DIGSA ([1]; 250 g ai/ha) | phytotoxicity rating CASOB ([4]; 63 g ai/ha) | phytotoxicity rating CASOB ([4]; 250 g ai/ha) | phytotoxicity rating SETVI ([5]; 63 g ai/ha) | phytotoxicity rating AMBEL ([8]; 63 g ai/ha) | phytotoxicity rating DIGSA ([16]; 250 g ai/ha) | phytotoxicity rating CASOB ([19]; 250 g ai/ha) | phytotoxicity rating ABUTH ([22]; 63 g ai/ha) | phytotoxicity rating AMBEL ([23]; 250 g ai/ha)
35: phytotoxicity rating ECHCO ([9]; 63 g ai/ha)
100: phytotoxicity rating AMARE ([17]; 250 g ai/ha) | phytotoxicity rating CHEAL ([21]; 63 g ai/ha) | phytotoxicity rating CHEAL ([21]; 250 g ai/ha)
15: phytotoxicity rating SORHA ([11]; 250 g ai/ha) | crop damage rating CORN ([13]; 250 g ai/ha) | phytotoxicity rating SORHA ([26]; 63 g ai/ha)

Cn1c(C(F)(F)F)cc(=O)n(-c2cc(C(=O)NN=C(c3ccccc3)c3ccccc3)c(Cl)cc2F)c1=O [Compound 6-15]
60: phytotoxicity rating SETVI ([5]; 250 g ai/ha) | phytotoxicity rating XANST ([18]; 250 g ai/ha)
25: crop damage rating CORN ([13]; 250 g ai/ha)
30: phytotoxicity rating XANST ([18]; 63 g ai/ha)
65: phytotoxicity rating ECHCO ([9]; 250 g ai/ha) | phytotoxicity rating CASOB ([19]; 63 g ai/ha)
100: phytotoxicity rating IPOHE ([10]; 250 g ai/ha) | phytotoxicity rating AMARE ([17]; 63 g ai/ha) | phytotoxicity rating AMARE ([17]; 250 g ai/ha) | phytotoxicity rating CHEAL ([21]; 63 g ai/ha) | phytotoxicity rating CHEAL ([21]; 250 g ai/ha) | phytotoxicity rating ABUTH ([22]; 63 g ai/ha) | phytotoxicity rating ABUTH ([22]; 250 g ai/ha)
95: phytotoxicity rating AMBEL ([23]; 250 g ai/ha) | phytotoxicity rating IPOHE ([25]; 250 g ai/ha) | phytotoxicity rating SORHA ([26]; 250 g ai/ha)
75: phytotoxicity rating XANST ([3]; 250 g ai/ha) | phytotoxicity rating CASOB ([4]; 250 g ai/ha) | phytotoxicity rating IPOHE ([10]; 63 g ai/ha) | phytotoxicity rating SETVI ([20]; 63 g ai/ha)
35: phytotoxicity rating ECHCG ([24]; 250 g ai/ha)
70: phytotoxicity rating XANST ([3]; 63 g ai/ha) | phytotoxicity rating CASOB ([4]; 63 g ai/ha) | phytotoxicity rating AMBEL ([23]; 63 g ai/ha)
50: phytotoxicity rating DIGSA ([1]; 250 g ai/ha) | phytotoxicity rating ECHCO ([9]; 63 g ai/ha)
0: phytotoxicity rating SORHA ([11]; 63 g ai/ha) | crop damage rating RICE ([12]; 63 g ai/ha) | crop damage rating RICE ([12]; 250 g ai/ha) | crop damage rating RICE ([14]; 63 g ai/ha) | crop damage rating RICE ([14]; 250 g ai/ha) | crop damage rating CORN ([15]; 63 g ai/ha) | crop damage rating CORN ([15]; 250 g ai/ha) | phytotoxicity rating ECHCG ([24]; 63 g ai/ha)
15: phytotoxicity rating SORHA ([11]; 250 g ai/ha) | phytotoxicity rating IPOHE ([25]; 63 g ai/ha)
80: phytotoxicity rating ABUTH ([7]; 63 g ai/ha) | phytotoxicity rating AMBEL ([8]; 63 g ai/ha) | phytotoxicity rating AMBEL ([8]; 250 g ai/ha)
98: phytotoxicity rating ABUTH ([7]; 250 g ai/ha) | phytotoxicity rating SETVI ([20]; 250 g ai/ha)
20: phytotoxicity rating DIGSA ([1]; 63 g ai/ha) | crop damage rating CORN ([13]; 63 g ai/ha)
40: phytotoxicity rating SORHA ([26]; 63 g ai/ha)
90: phytotoxicity rating AMARE [2, 27] | phytotoxicity rating AMARE ([2]; 250 g ai/ha, scale 0-100) | phytotoxicity rating CHEAL ([6]; 63 g ai/ha) | phytotoxicity rating CHEAL ([6]; 250 g ai/ha)
99: phytotoxicity rating DIGSA ([16]; 250 g ai/ha) | phytotoxicity rating CASOB ([19]; 250 g ai/ha)
85: phytotoxicity rating DIGSA ([16]; 63 g ai/ha)
55: phytotoxicity rating SETVI ([5]; 63 g ai/ha)

From patent publication US6770597B2, “Benzohydrazide derivatives as herbicides and desiccant compositions containing them” (Ishihara Sangyo Kaisha, Ltd., priority 2002, dated 2004)
